Experimental data reported in patent publication US6740521B2, “High-sensitive detection of environmental pollutants” (priority 2001, dated 2004).
Like-named read-outs stand apart in the source and are kept apart here.

Tested on: CHO 2F1813 cells
Assay type: cell-based, Chinese hamster
[1] = 2F1813 strain compared with SV40-promoter control strain 5K95, FIG. 3 to FIG. 6

Compound	Induction of the β-galactosidase activity expression [1]	Fluorescence value (β-galactosidase inducing activity)	Induction of the β-galactosidase activity expression
[Cd] [Cadmium]	observed only in the 2F1813 stain		
[Ni] [Nickel]		1.3˜18 RU	observed only in the 2F1813 stain
Clc1ccccc1Cl [o-Dichlorobenzene]	observed only in the 2F1813 stain		
CCCCC(CC)COC(=O)c1ccccc1C(=O)OCC(CC)CCCC (stereo not shown) [Di(ethylhexyl)phthalate]	observed only in the 2F1813 stain		
C1COCCO1 [1,4-Dioxane]		0˜27 RU	
Nonylphenol A	observed only in the 2F1813 stain		
